The target of the test is T1, HDAC6 (Homo sapiens, UniProt Q9UBN7).
T1 sequence (Q9UBN7 1-1215): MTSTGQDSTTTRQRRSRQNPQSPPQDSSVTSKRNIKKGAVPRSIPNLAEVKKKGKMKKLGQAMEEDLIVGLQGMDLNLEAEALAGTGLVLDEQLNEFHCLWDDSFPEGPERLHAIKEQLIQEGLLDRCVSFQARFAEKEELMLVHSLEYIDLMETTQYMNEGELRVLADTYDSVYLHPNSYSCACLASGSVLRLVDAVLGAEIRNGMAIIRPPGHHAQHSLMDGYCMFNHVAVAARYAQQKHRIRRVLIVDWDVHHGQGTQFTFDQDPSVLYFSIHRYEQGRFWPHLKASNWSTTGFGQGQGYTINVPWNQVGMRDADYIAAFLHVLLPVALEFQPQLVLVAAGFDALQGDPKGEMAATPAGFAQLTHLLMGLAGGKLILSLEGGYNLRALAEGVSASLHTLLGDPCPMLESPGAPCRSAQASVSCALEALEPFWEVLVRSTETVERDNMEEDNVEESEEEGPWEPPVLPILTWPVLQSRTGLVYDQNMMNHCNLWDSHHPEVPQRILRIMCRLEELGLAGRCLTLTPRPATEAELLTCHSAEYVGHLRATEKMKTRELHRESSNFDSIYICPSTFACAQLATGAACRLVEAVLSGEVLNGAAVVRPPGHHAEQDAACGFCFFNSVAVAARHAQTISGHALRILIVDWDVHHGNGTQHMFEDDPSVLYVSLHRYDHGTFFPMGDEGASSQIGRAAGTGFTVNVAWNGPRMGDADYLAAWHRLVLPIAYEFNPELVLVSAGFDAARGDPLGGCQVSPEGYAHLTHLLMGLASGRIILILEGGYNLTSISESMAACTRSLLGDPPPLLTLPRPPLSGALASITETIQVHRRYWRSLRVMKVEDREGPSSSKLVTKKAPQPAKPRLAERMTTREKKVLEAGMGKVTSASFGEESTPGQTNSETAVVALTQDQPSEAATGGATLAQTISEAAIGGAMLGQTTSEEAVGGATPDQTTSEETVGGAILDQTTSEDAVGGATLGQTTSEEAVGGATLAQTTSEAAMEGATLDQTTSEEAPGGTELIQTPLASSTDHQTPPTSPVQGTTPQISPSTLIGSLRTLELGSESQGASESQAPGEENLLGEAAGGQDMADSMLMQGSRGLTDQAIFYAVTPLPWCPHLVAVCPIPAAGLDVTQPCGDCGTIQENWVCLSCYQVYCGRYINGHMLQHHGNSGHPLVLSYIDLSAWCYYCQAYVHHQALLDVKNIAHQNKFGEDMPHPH
In words: Homogeneous ZMAL-based fluorescence assay for HDAC6. In kind it is biochemical. The procedure: The inhibition of HDAC1 and 6 by the S1th and PR-619 was determined via the ZMAL-assay according to the same general procedure described for sirtuins (2.2.1). 5 μL substrate (10.5 μM final assay concentration) were mixed with 3 μL of inhibitor in DMSO or DMSO and 10 μL of HDAC solution (concentration adjusted to 15–30% conversion) and filled up to 60 μL with assay buffer (50 mM Tris, 137 mM NaCl, 1 mM MgCl2, 2,7 mM KCl, 1 mg/ml BSA, pH = 8.0). The mixture was incubated at 37°C and 140 rpm for 1.5 h. For the stop solution Trichostatin A (3.3 μM) was used instead of nicotinamide. Fluorescence intensity was measured as described above. An enzyme free blank control and an AMC containing 100% control were performed as well and inhibition was calculated in % in relation to a DMSO control.

On to `N#CSc1cc(SC#N)c(N)nc1N` [PR-619, reference compound], for which the “residual activity HDAC6” value is recorded as ~ 50% and at 100 µM the inhibition was 49%.
Take `N#CSc1cccc(NC(=O)[C@H]2CC=CC[C@H]2C(=O)O)c1` [S1th 10]: the “% inhibition @ 100 μM HDAC6” value is listed as 29% and the inhibition – broadly, the change of the read-out against control, counted positive when it falls – at 100 µM was found to be 19%.
In turn, `CCCCNC(=O)Nc1cccc(SC#N)c1` [S1th 11] displayed an inhibition at 100 µM of less than 10%.
Still for that read-out and setting: in the case of `COc1ccc(SC#N)cc1OCC(=O)N(CCC#N)CCC#N` [S1th 12] it was 36%.
Regarding `N#CSc1cccc(NS(=O)(=O)c2ccc3c(c2)OCCO3)c1` [S1th 13], the “% inhibition @ 100 μM HDAC6” value was found to be 19% and the inhibition at 100 µM came out at 29%.

These data come from paper PMC7203344, “Sirtuin 1 Inhibiting Thiocyanates (S1th)—A New Class of Isotype Selective Inhibitors of NAD^+ Dependent Lysine Deacetylases” (Frontiers in Oncology, 2020).
